Reference: US20150315188A1, “COMPOUNDS AND METHODS FOR TREATMENT OF HYPERTENSION” (MEDIVATION TECHNOLOGIES, INC., priority 2012, published 2015)

What was measured:
Parameters in all cases: purchased Milipore (Millipore)
[1] = molecular target: T1, Human adrenergic α1B receptor (Homo sapiens, UniProt P35368); assay: Radioligand binding, adrenergic α1B (Protocol Group B); settings: Protocol Group B; for inhibition at 0.1 µM / Percentage inhibition of ligand binding, Adrenergic α1B (0.1 μM): 0.1 μM compound; for inhibition at 0.1 µM: read-out: Percentage inhibition of ligand binding, Adrenergic α1B (0.1 μM); for inhibition at 0.3 µM / Percentage inhibition of ligand binding, Adrenergic α1B (0.3 μM): 0.3 μM compound; for inhibition at 0.3 µM: read-out: Percentage inhibition of ligand binding, Adrenergic α1B (0.3 μM)
T1 sequence (P35368 1-520): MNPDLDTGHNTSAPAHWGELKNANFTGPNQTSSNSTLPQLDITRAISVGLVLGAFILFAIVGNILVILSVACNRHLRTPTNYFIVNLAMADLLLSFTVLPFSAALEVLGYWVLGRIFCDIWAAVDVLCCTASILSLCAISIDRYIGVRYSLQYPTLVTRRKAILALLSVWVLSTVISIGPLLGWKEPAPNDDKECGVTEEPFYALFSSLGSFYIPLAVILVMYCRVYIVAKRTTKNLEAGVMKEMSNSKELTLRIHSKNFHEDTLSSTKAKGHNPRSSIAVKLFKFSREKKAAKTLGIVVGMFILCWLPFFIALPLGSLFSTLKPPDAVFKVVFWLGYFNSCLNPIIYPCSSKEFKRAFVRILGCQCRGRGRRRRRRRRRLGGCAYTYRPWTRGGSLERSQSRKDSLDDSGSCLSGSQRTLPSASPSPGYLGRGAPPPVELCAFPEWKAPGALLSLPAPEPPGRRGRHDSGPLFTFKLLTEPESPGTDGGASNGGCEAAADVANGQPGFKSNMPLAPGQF
Procedure, shortened: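 Values are percent inhibition of specific [3H]prazosin (0.3 nM) binding or estimated Ki, from filtration counting. Human α1B recombinant membranes, Tris-HCl pH 7.4 buffer with MgCl2 and EDTA, 60 min at 25 °C, 1% DMSO vehicle; 10 μM prazosin defined nonspecific binding.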

[2] = molecular target: T2, Human adrenergic α2B receptor (Homo sapiens, UniProt P18089); assay: Radioligand binding, adrenergic α2B (Protocol Group B); settings: Protocol Group B; for inhibition at 0.01 µM / Percentage inhibition of ligand binding, Adrenergic α2B (10 nM): 10 nM compound; for inhibition at 0.01 µM: read-out: Percentage inhibition of ligand binding, Adrenergic α2B (10 nM); for inhibition at 0.03 µM / Percentage inhibition of ligand binding, Adrenergic α2B (30 nM): 30 nM compound; for inhibition at 0.03 µM: read-out: Percentage inhibition of ligand binding, Adrenergic α2B (30 nM); for Percentage inhibition of ligand binding, Adrenergic α2B (10 nM): 0.01 µM; for Percentage inhibition of ligand binding, Adrenergic α2B (30 nM): 0.03 µM
T2 sequence (P18089 1-450): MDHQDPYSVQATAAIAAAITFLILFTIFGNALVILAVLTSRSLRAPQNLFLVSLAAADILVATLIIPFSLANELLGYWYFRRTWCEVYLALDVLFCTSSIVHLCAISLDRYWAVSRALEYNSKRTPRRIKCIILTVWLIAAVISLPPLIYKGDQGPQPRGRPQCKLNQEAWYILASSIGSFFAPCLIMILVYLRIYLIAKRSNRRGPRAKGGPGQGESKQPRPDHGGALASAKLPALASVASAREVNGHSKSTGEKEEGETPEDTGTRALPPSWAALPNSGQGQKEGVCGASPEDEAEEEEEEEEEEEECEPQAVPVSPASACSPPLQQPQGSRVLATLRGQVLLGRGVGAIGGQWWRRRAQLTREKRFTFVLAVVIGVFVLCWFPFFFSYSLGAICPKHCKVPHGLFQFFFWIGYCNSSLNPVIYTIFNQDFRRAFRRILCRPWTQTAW
Procedure, shortened: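 Compounds at various concentrations in 1% DMSO were tested on recombinant membranes in Tris-HCl pH 7.4 buffer containing MgCl2, CaCl2 and 0.2% BSA.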

[3] = molecular target: T3, Human adrenergic α2A receptor (Homo sapiens, UniProt P08913); assay: Radioligand binding, adrenergic α2A (Protocol Group B); settings: Protocol Group B
T3 sequence (P08913 1-465): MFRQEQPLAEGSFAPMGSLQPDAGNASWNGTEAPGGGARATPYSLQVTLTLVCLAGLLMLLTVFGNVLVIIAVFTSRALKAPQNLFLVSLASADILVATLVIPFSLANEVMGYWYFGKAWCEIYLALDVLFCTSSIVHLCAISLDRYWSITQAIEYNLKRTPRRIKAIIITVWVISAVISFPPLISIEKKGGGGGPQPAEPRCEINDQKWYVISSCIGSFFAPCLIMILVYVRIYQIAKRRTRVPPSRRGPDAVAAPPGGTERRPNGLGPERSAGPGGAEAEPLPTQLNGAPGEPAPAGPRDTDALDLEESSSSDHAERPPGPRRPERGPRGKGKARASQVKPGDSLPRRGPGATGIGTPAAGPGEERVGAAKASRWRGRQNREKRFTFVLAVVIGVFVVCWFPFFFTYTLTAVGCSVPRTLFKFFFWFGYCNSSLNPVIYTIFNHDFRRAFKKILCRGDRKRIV
Procedure, shortened: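 Compounds (1% DMSO vehicle, various concentrations) competed against 2 nM [^3H]MK-912 on recombinant receptor membranes for 60 min at 25° C, Tris-HCl pH 7.4 buffer with Mg2+, Ca2+, BSA. Bound radioligand filtered and counted; 10 μM rauwolscine set nonspecific binding. Values: percent inhibition of specific binding or estimated Ki.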

inhibition at 0.1 µM [1] [%]	inhibition at 0.3 µM [1] [%]	inhibition at 0.01 µM [2] [%]	inhibition at 0.03 µM [2] [%]	Percentage inhibition of ligand binding, Adrenergic α2B (0.1 μM) ([2]; 0.1 μM compound) [%]	Percentage inhibition of ligand binding, Adrenergic α2A (0.1 μM) ([3]; 0.1 μM compound) [%]	inhibition at 0.3 µM ([3]; 0.3 μM compound, read-out: Percentage inhibition of ligand binding, Adrenergic α2A (0.3 μM)) [%]	Percentage inhibition of ligand binding, Adrenergic α2B (10 nM) [2] [%]	Percentage inhibition of ligand binding, Adrenergic α2B (30 nM) [2] [%]	inhibition at 0.1 µM ([2]; 0.1 μM compound, read-out: Percentage inhibition of ligand binding, Adrenergic α2B (0.1 μM)) [%]	Percentage inhibition of ligand binding, Adrenergic α2A (0.3 μM) ([3]; 0.3 μM compound) [%]	Percentage inhibition of ligand binding, Adrenergic α1B (0.1 μM) [1] [%]	Percentage inhibition of ligand binding, Adrenergic α1B (0.3 μM) [1] [%]	inhibition at 0.1 µM ([3]; 0.1 μM compound, read-out: Percentage inhibition of ligand binding, Adrenergic α2A (0.1 μM)) [%]	Compound
9	14	13	27	26	7	10	–	–	–	–	–	–	–	Cc1ccc2c(c1)c1c(n2CC(OC(N)=O)c2ccncc2)CCN(C)C1 (single isomer, unassigned) [8b]
-1	18	–	–	–	5	–	14	34	69	31	–	–	–	Cc1ccc2c(c1)c1c(n2CC(C)(O)c2cnc3ccccc3c2)CCN(C)C1 (centres unmarked) [compound 32]
–	–	–	–	91	22	–	15	42	–	49	19	43	–	Cc1cc2c3c(n(CC(C)(O)c4ccncc4)c2cc1Cl)CCN1CCCC31 (single isomer, unassigned) [50c]
–	–	–	–	32	−7	–	15	6	–	−2	−16	12	–	Cc1ccc2c(c1)c1c(n2CC(O)c2ccncc2)CNC2CCCC12 (single isomer, unassigned) [34b]
–	–	–	–	–	44	–	–	89	–	–	91	–	–	OC(Cn1c2c(c3cc(Cl)ccc31)C1CCCN1CC2)c1ccncc1 (single isomer, unassigned) [143a]
–	–	–	–	22	−7	–	0	7	–	8	2	12	–	Cc1cc(F)cc2c3c(n(CC(C)(O)c4ccncc4)c12)CC1CCCN1C3 (single isomer, unassigned) [78b]
–	–	–	–	75	15	–	25	48	–	17	40	68	–	Cc1ccc2c(c1)c1c(n2CC(C)(O)c2ccncc2)CC2CCCN2C1 (single isomer, unassigned) [37b]
–	–	–	–	–	−5	–	–	−8	–	–	−6	–	–	Cc1ccc2c(c1)c1c(n2CC(C)(O)c2ccc(F)cc2)CN2CCC1C2 (single isomer, unassigned) [134a]
–	–	–	–	–	3	–	20	33	–	−1	−11	−2	–	Cc1cc(F)cc2c3c(n(CC(C)(O)c4ccncc4)c12)CC1CCCN1C3 (single isomer, unassigned) [78c]
–	–	–	–	–	16	–	–	73	–	–	28	–	–	OC(Cn1c2c(c3cc(F)cc(F)c31)C1CCCN1CC2)c1ccncc1 (single isomer, unassigned) [144a]
–	–	–	–	–	15	–	21	24	–	16	19	18	–	Cc1cc(F)c2c(c1)c1c(n2CC(O)c2ccncc2)CCN2CCCC12 (single isomer, unassigned) [137d]
–	–	12	–	–	–	–	–	30	–	19	7	32	3	Cc1cc(F)cc2c3c(n(CC(C)(O)c4ccncc4)c12)CCN1CCCC31 (single isomer, unassigned) [77a]
–	–	–	–	–	61	–	–	100	–	–	18	–	–	OC(Cn1c2c(c3cc(F)cc(F)c31)C1CCCN1CC2)c1ccncc1 (single isomer, unassigned) [144b]
–	12	–	10	–	12	–	4	–	–	18	1	–	–	OC(Cn1c2c(c3cc(Cl)cc(F)c31)C1CCCN1CC2)c1ccncc1 (single isomer, unassigned) [135c]

Compound	inhibition at 0.1 µM [1] [%]	inhibition at 0.3 µM [1] [%]	inhibition at 0.01 µM [2] [%]	inhibition at 0.03 µM [2] [%]	Percentage inhibition of ligand binding, Adrenergic α2B (0.1 μM) ([2]; 0.1 μM compound) [%]	Percentage inhibition of ligand binding, Adrenergic α2A (0.1 μM) ([3]; 0.1 μM compound) [%]	inhibition at 0.3 µM ([3]; 0.3 μM compound, read-out: Percentage inhibition of ligand binding, Adrenergic α2A (0.3 μM)) [%]	Percentage inhibition of ligand binding, Adrenergic α2B (10 nM) [2] [%]	Percentage inhibition of ligand binding, Adrenergic α2B (30 nM) [2] [%]	inhibition at 0.1 µM ([2]; 0.1 μM compound, read-out: Percentage inhibition of ligand binding, Adrenergic α2B (0.1 μM)) [%]	Percentage inhibition of ligand binding, Adrenergic α2A (0.3 μM) ([3]; 0.3 μM compound) [%]	Percentage inhibition of ligand binding, Adrenergic α1B (0.1 μM) [1] [%]	Percentage inhibition of ligand binding, Adrenergic α1B (0.3 μM) [1] [%]	inhibition at 0.1 µM ([3]; 0.1 μM compound, read-out: Percentage inhibition of ligand binding, Adrenergic α2A (0.1 μM)) [%]
Cc1ccc2c(c1)c1c(n2CC(C)(O)c2ccc(F)cc2)CC2CCC1N2C (single isomer, unassigned) [102d]	–	–	–	–	−8	−8	–	−8	6	–	4	−1	−5	–
Cc1ccc2c(c1)c1c(n2CC(C)(O)c2ccc(F)cc2)CC2CCC1N2C (single isomer, unassigned) [102a]	–	–	–	–	38	−8	–	2	13	–	5	5	22	–
